Assay results taken from PMC6234866, “High-Affinity Chemotaxis to Histamine Mediated by the TlpQ Chemoreceptor of the Human Pathogen Pseudomonas aeruginosa” (mBio, 2018).
Like-named read-outs stand apart in the source and are kept apart here.

Key:
McpU-LBD [1] = target: T1, McpU-LBD (Pseudomonas putida, UniProt Q88NI1); assay: ITC binding of ligands to McpU-LBD; design: species or system Pseudomonas putida KT2440; details: for ΔH McpU-LBD / Kd: 25°C; for Kd: polybuffer pH 7.0
TlpQ-LBD [2] = target: TlpQ-LBD (Pseudomonas aeruginosa, UniProt Q9I0I4); assay: biochemical; format: binding, Pseudomonas aeruginosa PAO1
TlpQ-LBD [3] = assay: biochemical; format: binding, Pseudomonas aeruginosa PAO1; details: ratio of ITC KD values
McpU-LBD [4] = target: T1, McpU-LBD; assay: Thermal shift assay of McpU-LBD; format: binding, Pseudomonas putida KT2440; details: 10 µM McpU-LBD, Biolog plate PM3B; Tm without ligand 46.5°C
Protocol: Thermal shift experiments were conducted as reported in reference in [57]. McpU-LBD in polybuffer {5 mM Tris, 5 mM PIPES [piperazine-N,N′-bis(2-ethanesulfonic acid)], 5 mM MES [morpholineethanesulfonic acid], 10% glycerol [vol/vol], 150 mM NaCl, pH 7.0} was used at a final concentration of 10 µM. Biolog (Hayward, CA, USA) compound arrays PM3B (nitrogen sources), PM4A (phosphorous and sulfur sources), and PM5 (nutrient supplements) were used for screening. The compositions of these arrays are provided at http://208.106.130.253/pdf/pm_lit/PM1-PM10.pdf.

[5] = system: P. aeruginosa PA14 mutant defective in pctA, pctC and tlpQ; details: deletion of pctA, tlpQ homologues
Protocol: (§1) Two protocols were used that differed in the ways the cells were counted. The first protocol was used to generate the data shown Fig. S6, whereas the second protocol was used for the remaining chemotaxis experiments. In the first protocol, overnight cultures of strains were diluted to an OD660 of 0.05 in MS medium ([58]) supplemented with 6 mg·liter^−1 Fe citrate, trace elements, and 15 mM glucose and grown at 37°C. At an OD660 of 0.4, the cultures were centrifuged at 1,700 × g for 5 min and the pellet was washed twice with chemotaxis buffer (50 mM potassium phosphate, […], 0.05% [vol/vol] glycerol, pH 7.0). The cells were resuspended in this buffer and adjusted to an OD660 of 0.1, and 230-µl aliquots were placed into 96-well plates. Capillary tubes (P1424, Microcaps; Drummond Scientific) were heat sealed at one end and filled with chemotaxis buffer or chemotaxis chemoattractant solution. The capillaries were then immersed in bacterial suspensions at their open ends. After 30 min at room temperature, the capillaries were removed and rinsed with sterile water, and the content was expelled into 1 ml of M9 medium. Serial dilutions were plated on LB medium, and the CFU were determined. In all cases, the data were corrected to the number of cells that swam into the buffer-containing capillaries. In the second protocol, we used computer-assisted image analysis as reported previously ([59]). Briefly, capillaries were filled with chemoattractant solutions in 10 mM HEPES buffer (pH 7.0) containing 1% (wt/vol) agarose and heat sealed on one side. The cells were grown in 2× yeast extract-tryptone (YT), medium and 10-μl aliquots of the cell suspension were placed onto a microscope slide within the U-shaped spacer, which was then covered by a coverslip. The chemoattractant-filled capillaries were introduced into the chemotaxis chamber, and cell movement was videotaped, with images taken at the beginning and at different time intervals. If not otherwise stated, the contact time between the cell and the chemoattractant was 2 min. The Bioinformatics Assistant Icy Sport detector software ([60]) was used to determine the number of cells per image. The magnitude of chemotaxis was expressed as the number of cells after a given time over the number of cells at the beginning of the experiment. The data shown are the means and standard deviations from three experiments conducted in triplicates.

[6] = system: P. aeruginosa PAO1 mutant strains
Protocol: as §1

P. aeruginosa PAO1 = details: PAO1, capillary assay
Protocol: as §1

[7] = system: P. aeruginosa strains 233, 401 and PA14; details: 5 mM histamine; all analyzed P. aeruginosa strains
Protocol: as §1

PctC-LBD = PctC-LBD (Pseudomonas aeruginosa, UniProt Q9HW93); assay: Microcalorimetric binding studies with PctC-LBD; design: species or system Pseudomonas aeruginosa PAO1; details: direct microcalorimetric titration
[8] = system: Ralstonia pseudosolanacearum Ps29; details: 5 mM histamine, strain Ps29
[9] = system: Ralstonia pseudosolanacearum Ps29; details: Ps29, minimal medium, 5 mM
PctA-LBD = PctA-LBD (Pseudomonas aeruginosa, UniProt G3XD24); details: for binding to PctA-LBD (in words): direct microcalorimetric titration
PAO1 = assay: Growth with ligand as sole carbon or nitrogen source, PAO1; details: PAO1, minimal medium, 5 mM ligand
KT2440 = assay: Growth with ligand as sole carbon or nitrogen source, KT2440; details: KT2440, minimal medium, 5 mM ligand
McpU-LBD [10] = target: T1, McpU-LBD; details: read-out: KD McpU-LBD; ITC; reported previously; cited from earlier work

Sequence of PctA-LBD (G3XD24 32-276): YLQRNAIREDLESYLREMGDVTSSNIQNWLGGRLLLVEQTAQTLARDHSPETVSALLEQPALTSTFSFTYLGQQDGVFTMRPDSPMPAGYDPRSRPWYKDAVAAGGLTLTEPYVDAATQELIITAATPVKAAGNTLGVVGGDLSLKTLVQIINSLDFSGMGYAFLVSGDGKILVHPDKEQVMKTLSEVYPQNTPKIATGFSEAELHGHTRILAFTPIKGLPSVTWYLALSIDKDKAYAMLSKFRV
T1 sequence (Q88NI1 50-284): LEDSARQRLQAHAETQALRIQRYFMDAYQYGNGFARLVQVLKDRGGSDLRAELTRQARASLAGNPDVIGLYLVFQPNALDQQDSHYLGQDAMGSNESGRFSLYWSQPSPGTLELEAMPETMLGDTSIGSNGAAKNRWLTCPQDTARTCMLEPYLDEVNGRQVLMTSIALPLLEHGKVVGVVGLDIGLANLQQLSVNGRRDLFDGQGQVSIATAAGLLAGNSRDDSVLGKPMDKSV
Sequence of TlpQ-LBD (Pseudomonas aeruginosa, UniProt Q9I0I4) (Q9I0I4 33-359): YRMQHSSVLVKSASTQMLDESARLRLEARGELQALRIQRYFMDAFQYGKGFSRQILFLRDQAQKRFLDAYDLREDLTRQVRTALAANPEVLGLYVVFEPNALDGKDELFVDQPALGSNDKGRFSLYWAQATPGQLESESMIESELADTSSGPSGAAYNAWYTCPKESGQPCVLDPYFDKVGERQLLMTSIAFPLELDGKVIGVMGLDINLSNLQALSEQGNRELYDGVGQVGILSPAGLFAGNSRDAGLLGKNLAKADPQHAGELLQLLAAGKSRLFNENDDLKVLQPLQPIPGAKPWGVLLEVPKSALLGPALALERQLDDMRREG
Sequence of PctC-LBD (Q9HW93 32-279): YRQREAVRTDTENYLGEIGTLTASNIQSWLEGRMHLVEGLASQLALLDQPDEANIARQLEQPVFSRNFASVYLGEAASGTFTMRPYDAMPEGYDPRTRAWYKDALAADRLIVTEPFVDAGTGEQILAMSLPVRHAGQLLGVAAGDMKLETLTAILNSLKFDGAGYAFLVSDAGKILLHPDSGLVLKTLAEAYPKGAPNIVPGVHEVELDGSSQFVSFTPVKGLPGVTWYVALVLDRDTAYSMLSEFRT

NCCc1c[nH]cn1 [Histamine]
binding to McpU-LBD (in words) (McpU-LBD [1]): much lower affinities | ΔH McpU-LBD (McpU-LBD [1]): -2.6 ± 0.3 kcal/mol | Kd (McpU-LBD [1]): 26000 ± 2000 nM | Kd (TlpQ-LBD [2]): 639 ± 27 nM | ΔH TlpQ-LBD (TlpQ-LBD [2]; ITC, 25°C): -9.1 ± 0.3 kcal/mol | KD McpU-LBD/KD TlpQ-LBD (TlpQ-LBD [3]): 41 | Tm increase of McpU-LBD (McpU-LBD [4]): greater than 2 °C | chemotaxis of PA14 triple mutant [5]: abolished histamine chemotaxis | chemotaxis of PCT2Q complemented with pctA, pctC or tlpQ ([6]; 500 µM histamine, 2.5 min): significant chemotaxis | chemotaxis of PCT2Q complemented with pctC or tlpQ in trans ([6]; 500 µM histamine, exposure time 1 min): recovered histamine chemotaxis | chemotaxis of strain PCT2 (pctA, pctB, pctC deleted) ([6]; 5 mM histamine): abolished chemotaxis | concentration range of significant chemotaxis of PCT2 mutant ([6]; dose response): 0.5 µM and 500 µM | chemotaxis of PCT2Q mutant (pctABC and tlpQ deleted) ([6]; entire concentration range 50 nM to 50 mM): devoid of histamine chemotaxis | concentration at onset of chemotactic response (P. aeruginosa PAO1): 500 nM | chemotaxis (in words) (P. aeruginosa PAO1; 2 min): much stronger | chemotaxis (in words) [7]: significant chemotaxis | binding to PctC-LBD (in words) (PctC-LBD): did not bind | concentration at onset of chemotactic response (P. putida KT2440; KT2440, capillary assay): 5 µM | chemotaxis (in words) (P. putida KT2440; KT2440, histamine dose response): only moderate chemotaxis | chemotaxis (in words) [8]: not attracted | growth as sole carbon and nitrogen source [9]: no significant growth | binding to PctA-LBD, competition assay (in words) (PctA-LBD; PctA-LBD titrated with L-Ala with and without 20 mM histamine): does not bind directly | binding to PctA-LBD (in words) (PctA-LBD): did not bind | growth as sole carbon or nitrogen source (PAO1): permitted the growth | growth as sole carbon or nitrogen source (KT2440): permitted the growth

C[C@H](N)C(=O)O [L-Ala, L-alanine, reference compound]
binding to PctA-LBD (in words) (PctA-LBD): bound

NCCCCN [Putrescine]
ΔH McpU-LBD (McpU-LBD [1]): -15 ± 0.5 kcal/mol | Kd (TlpQ-LBD [2]): 134 ± 12 nM | ΔH TlpQ-LBD (TlpQ-LBD [2]; ITC, 25°C): -6.8 ± 0.3 kcal/mol | KD McpU-LBD/KD TlpQ-LBD (TlpQ-LBD [3]): 15 | Kd (McpU-LBD [10]): 2000 ± 100 nM

NCCCCCN [Cadaverine]
ΔH McpU-LBD (McpU-LBD [1]): -15.5 ± 0.5 kcal/mol | Kd (TlpQ-LBD [2]): 150 ± 4 nM | ΔH TlpQ-LBD (TlpQ-LBD [2]; ITC, 25°C): -6.0 ± 0.1 kcal/mol | KD McpU-LBD/KD TlpQ-LBD (TlpQ-LBD [3]): 147 | Kd (McpU-LBD [10]): 22000 ± 2000 nM

C=C [ethylene]
binding to TlpQ-LBD (in words) (TlpQ-LBD [2]; ITC): did not show any binding

NCCN [Ethylenediamine]
binding to McpU-LBD (in words) (McpU-LBD [1]): much lower affinities | ΔH McpU-LBD (McpU-LBD [1]): -9.7 ± 0.5 kcal/mol | Kd (McpU-LBD [1]): 39000 ± 4000 nM | binding to TlpQ-LBD (in words) (TlpQ-LBD [2]; ITC): slightly weaker | ΔH TlpQ-LBD (TlpQ-LBD [2]; ITC, 25°C): -6.3 ± 0.6 kcal/mol | Kd (TlpQ-LBD [2]; ITC, 25°C, polybuffer pH 7.0, read-out: KD TlpQ-LBD): 1710 nM | KD McpU-LBD/KD TlpQ-LBD (TlpQ-LBD [3]): 23 | Tm increase of McpU-LBD (McpU-LBD [4]): greater than 2 °C | growth as sole carbon or nitrogen source (PAO1): either not or were poor growth substrates | growth as sole carbon or nitrogen source (KT2440): either not or were poor growth substrates

NCCCCNCCCN [Spermidine]
ΔH McpU-LBD (McpU-LBD [1]): -4.3 ± 0.3 kcal/mol | Kd (TlpQ-LBD [2]): 56 ± 4 nM | ΔH TlpQ-LBD (TlpQ-LBD [2]; ITC, 25°C): -4.6 ± 0.4 kcal/mol | KD McpU-LBD/KD TlpQ-LBD (TlpQ-LBD [3]): 80 | Kd (McpU-LBD [10]): 4500 ± 400 nM | growth as sole carbon or nitrogen source (PAO1): either not or were poor growth substrates | growth as sole carbon or nitrogen source (KT2440): either not or were poor growth substrates

NC(=O)CC[C@H](N)C(=O)O [L-Gln, reference compound]
binding to PctC-LBD (in words) (PctC-LBD): bound

NCCCCN=C(N)N [Agmatine]
binding to McpU-LBD (in words) (McpU-LBD [1]): Very tight binding | ΔH McpU-LBD (McpU-LBD [1]): -14.5 ± 0.2 kcal/mol | Kd (McpU-LBD [1]): 480 ± 20 nM | Kd (TlpQ-LBD [2]): 150 ± 9 nM | ΔH TlpQ-LBD (TlpQ-LBD [2]; ITC, 25°C): -5.4 ± 0.1 kcal/mol | KD McpU-LBD/KD TlpQ-LBD (TlpQ-LBD [3]): 3 | Tm increase of McpU-LBD (McpU-LBD [4]): greater than 2 °C
